Experimental data: patent publication US9457033B2, “Steroid alkaloids and uses thereof as antimicrobial agents against electron transport-deficient microbes and as potentiators for antimicrobial agents against pathogenic bacteria” (priority 2011, dated 2016)
Values after ≈ are worked out from the molar mass of the structure shown.

Columns and labels:
S. aureus CF1A-L = assay: MIC, microdilution in CAMHB 24 h; assay type: cell-based, Staphylococcus aureus; details: CF1A-L; Human (CF lungs)
S. aureus Newbould = assay: MIC, microdilution in CAMHB 24 h; assay type: cell-based, Staphylococcus aureus; details: Newbould; Cow (mastitis)
S. aureus ATCC 29213 [1] = assay: MIC, microdilution in CAMHB 24 h, with or without tomatidine/compound; assay type: cell-based, Staphylococcus aureus; details: ATCC 29213; for MIC: Human (SSTI); for MIC −TO: absence of tomatidine; for MIC +TO: presence of tomatidine at 8 μg/ml; for Fold (−TO/+TO): tomatidine at 8 μg/ml
S. aureus Sa228c = assay: MIC, microdilution in CAMHB 24 h; assay type: cell-based, Staphylococcus aureus; details: Sa228c; Human (SSTI); MRSA
S. aureus ATCC 43300 = assay: MIC, microdilution in CAMHB 24 h; assay type: cell-based, Staphylococcus aureus; details: ATCC 43300; Human (HA); MRSA
S. aureus ATCC BAA-41 = assay: MIC, microdilution in CAMHB 24 h; assay type: cell-based, Staphylococcus aureus; details: ATCC BAA-41; Human (HA); MRSA
S. aureus MRSA COL = assay: MIC, microdilution in CAMHB 24 h; assay type: cell-based, Staphylococcus aureus; details: MRSA COL; Human (SSTI)
S. aureus Sa220c = assay: MIC, microdilution in CAMHB 24 h; assay type: cell-based, Staphylococcus aureus; details: Sa220c; Human (SSTI); MRSA
S. aureus CF4B-L = assay: MIC, microdilution in CAMHB 24 h; assay type: cell-based, Staphylococcus aureus; details: CF4B-L; Human (CF lungs)
S. aureus CF2A-L = assay: MIC, microdilution in CAMHB 24 h; assay type: cell-based; details: CF2A-L; Human (CF lungs)
S. aureus Mu50 = assay: MIC, microdilution in CAMHB 24 h; assay type: cell-based, Staphylococcus aureus; details: Mu50; Human (SSTI); MRSA, VISA
S. aureus CF8E-L = assay: MIC, microdilution in CAMHB 24 h; assay type: cell-based, Staphylococcus aureus; details: CF8E-L; Human (CF lungs)
S. aureus CF35A-L = assay: MIC, microdilution in CAMHB 24 h; assay type: cell-based, Staphylococcus aureus; details: CF35A-L; Human (CF lungs); MRSA
S. aureus CF7A-L = assay: MIC, microdilution in CAMHB 24 h; assay type: cell-based, Staphylococcus aureus; details: CF7A-L; Human (CF lungs); MRSA
S. aureus CF6B-L = assay: MIC, microdilution in CAMHB 24 h; assay type: cell-based, Staphylococcus aureus; details: CF6B-L; Human (CF lungs)
S. aureus CF9A-L = assay: MIC, microdilution in CAMHB 24 h; assay type: cell-based, Staphylococcus aureus; details: CF9A-L; Human (CF lungs); MRSA
S. aureus 8325-4 = assay: MIC, microdilution in CAMHB 24 h; assay type: cell-based, Staphylococcus aureus; details: 8325-4; Laboratory strain
S. aureus SHY97-3906 = assay: MIC, microdilution in CAMHB 24 h; assay type: cell-based, Staphylococcus aureus; details: SHY97-3906; Cow (mastitis)
S. aureus CF07-L = assay: MIC, microdilution in CAMHB 24 h; assay type: cell-based, Staphylococcus aureus; details: CF07-L; Human (CF lungs)
S. aureus N315 = assay: microbe, parasite or virus in culture; assay type: cell-based, Staphylococcus aureus; details: N315; Human (HA); MRSA
S. aureus Newman = assay: MIC, microdilution in CAMHB 24 h; assay type: cell-based, Staphylococcus aureus; details: Newman; Human (Osteo)
S. aureus MA078038 = assay: MIC, microdilution in CAMHB 24 h; assay type: cell-based, Staphylococcus aureus; details: MA078038; Human (CA); MRSA
S. aureus ATCC 29213 [2] = assay: MIC, microdilution in BHI 48 h (Examples 1, 3); assay type: cell-based, Staphylococcus aureus
[3] = tested on: S. aureus Newbould (normal strain); assay: MIC, microdilution in BHI 48 h; assay type: cell-based, Staphylococcus aureus; details: Newbould, normal strain
[4] = tested on: S. aureus CF07-L (normal strain); assay: MIC, microdilution in BHI 48 h (Examples 1, 3); assay type: cell-based, Staphylococcus aureus
[5] = tested on: S. aureus CF1A-L (normal strain); assay: MIC, microdilution in BHI 48 h; assay type: cell-based, Staphylococcus aureus; details: CF1A-L, normal strain
[6] = tested on: S. aureus SCV NewbouldΔhemB; assay: MIC, microdilution in BHI 48 h; assay type: cell-based, Staphylococcus aureus; details: NewbouldΔhemB, SCV

Row | Compound | MIC (S. aureus CF1A-L) | MIC (S. aureus Newbould) | MIC (S. aureus ATCC 29213 [1]) | MIC −TO (S. aureus ATCC 29213 [1]) | MIC +TO (S. aureus ATCC 29213 [1]) | Fold (−TO/+TO) (S. aureus ATCC 29213 [1]) | MIC (S. aureus Sa228c) | MIC (S. aureus ATCC 43300) | MIC (S. aureus ATCC BAA-41) | MIC (S. aureus MRSA COL) | MIC (S. aureus Sa220c) | MIC (S. aureus CF4B-L) | MIC (S. aureus CF2A-L) | MIC (S. aureus Mu50) | MIC (S. aureus CF8E-L) | MIC (S. aureus CF35A-L) | MIC (S. aureus CF7A-L) | MIC (S. aureus CF6B-L) | MIC (S. aureus CF9A-L) | MIC (S. aureus 8325-4) | further results
1 | CN(C)[C@@H]1C(=O)C(C(N)=O)=C(O)[C@@]2(O)C(=O)C3=C(O)c4c(O)cccc4[C@@](C)(O)[C@H]3C[C@@H]12 [Tetracycline, tetracycline] | 0.25 µg/mL (≈ 0.563 µM) | 0.25 to 0.5 µg/mL | 0.25 to 0.5 µg/mL | 0.25 to 0.5 µg/mL | 0.25 to 0.5 µg/mL | 1 fold | >16 (R) μg/ml | 0.5 µg/mL (≈ 1.13 µM) | 0.5 µg/mL (≈ 1.13 µM) | 1 to 2 µg/mL | 0.5 µg/mL (≈ 1.13 µM) | 0.25 µg/mL (≈ 0.563 µM) | 2 µg/mL (≈ 4.5 µM) | >16 (R) μg/ml | 0.25 to 0.5 µg/mL | 0.5 µg/mL (≈ 1.13 µM) | 0.25 to 0.5 µg/mL | 0.25 µg/mL (≈ 0.563 µM) | 0.25 to 0.5 µg/mL | 0.25 µg/mL (≈ 0.563 µM) | MIC (S. aureus SHY97-3906): 0.25 to 0.5 µg/mL; MIC (S. aureus CF07-L): 0.5 µg/mL (≈ 1.13 µM); MIC (S. aureus N315): 0.5 µg/mL (≈ 1.13 µM); MIC (S. aureus Newman): 0.25 to 0.5 µg/mL; MIC (S. aureus MA078038): 0.5 µg/mL (≈ 1.13 µM)
2 | Cc1onc(-c2ccccc2)c1C(=O)N[C@@H]1C(=O)N2[C@@H]1SC(C)(C)[C@@H]2C(=O)O [Oxacillin, oxacillin] | 0.25 to 0.5 µg/mL | 0.12 µg/mL (≈ 0.299 µM) | 0.25 µg/mL (≈ 0.623 µM) | 0.25 µg/mL (≈ 0.623 µM) | 0.25 µg/mL | 1 fold | >64 (R) μg/ml | 16-32 (R) μg/ml | >64 (R) μg/ml | >64 (R) μg/ml | 16-32 (R) μg/ml | 0.5 µg/mL (≈ 1.25 µM) | 0.25 µg/mL (≈ 0.623 µM) | >64 (R) μg/ml | 0.125 µg/mL (≈ 0.311 µM) | >64 (R) μg/ml | >64 (R) μg/ml | 0.25 to 1 µg/mL | >64 (R) μg/ml | 0.12 µg/mL (≈ 0.299 µM) | MIC (S. aureus ATCC 29213 [2]; ATCC 29213 + HQNO at 20 μg/ml): 0.12 µg/mL; MIC (S. aureus ATCC 29213 [2]; ATCC 29213, without HQNO): 0.12 to 0.25 µg/mL; MIC (S. aureus ATCC 29213 [2]; ATCC 29213 in BHI): 0.12 to 0.25 µg/mL; MIC (S. aureus ATCC 29213 [2]; ATCC 29213 in MHBCA): 0.12 to 0.5 µg/mL; MIC [3]: 0.06 to 0.12 µg/mL; MIC ([4]; CF07-L + HQNO at 20 μg/ml): 0.06 to 0.12 µg/mL; MIC ([4]; CF07-L, normal strain): 0.06 to 0.12 µg/mL; MIC ([4]; CF07-L, without HQNO): 0.06 to 0.12 µg/mL; MIC (S. aureus SHY97-3906): 0.12 to 0.25 µg/mL; MIC (S. aureus CF07-L): 0.12 to 0.25 µg/mL; MIC (S. aureus N315): 8 (R) μg/ml; MIC (S. aureus Newman): 0.5 to 1 µg/mL; MIC [5]: 0.25 µg/mL (≈ 0.623 µM); MIC [6]: 0.03 to 0.06 µg/mL; MIC (S. aureus MA078038): 64 (R) μg/ml
